Here are results for 7 compounds from patent publication US12077503B2, “Substituted cyclic amides and their use as herbicides” (FMC CORPORATION, priority 2015, dated 2024).

Holding throughout (test): Test G Post-Emergence Protocol
Format in all cases: in vivo

Assay [1] has as its system barnyardgrass (Echinochloa crus-galli). Particulars: Echinochloa crus-galli, post-emergence, 312 h; for pest or weed control at 15.625 g/ha: 15.625 g ai/ha, evaluated after 13 days (100=total damage to plant; 0=no damage to plant), read-out: Barnyardgrass damage rating; for pest or weed control at 62.5 g/ha: 62.5 g ai/ha, read-out: Barnyardgrass damage rating (100=total damage to plant; 0=no damage to plant); for pest or weed control at 62.5 g/ha / pest or weed control at 250 g/ha: evaluated after 13 days; for pest or weed control at 250 g/ha: 250 g ai/ha, read-out: damage to plant, Barnyardgrass (100=total damage to plant; 0=no damage to plant). The method, boiled down:
(§1)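 Foliar application was made 8 days after sowing, using an aqueous spray of the active in acetone/water (50:50) with 0.5% Tween 20, at doses of 15.625, 62.5 or 250 g/ha. Injury was assessed 13 days later, where 100 meant the plant was fully damaged.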

A further assay concerns corn (Zea mays). Conditions: Zea mays, post-emergence, 312 h; for plant injury at 15.625 g/ha: 15.625 g ai/ha, evaluated after 13 days (100=total damage to plant; 0=no damage to plant), read-out: Corn damage rating; for plant injury at 62.5 g/ha: 62.5 g ai/ha, read-out: Corn damage rating (100=total damage to plant; 0=no damage to plant); for plant injury at 62.5 g/ha / plant injury at 250 g/ha: evaluated after 13 days; for plant injury at 250 g/ha: 250 g ai/ha, read-out: damage to plant, Corn (100=total damage to plant; 0=no damage to plant). The method, boiled down: as §1

For assay [2], the system named is giant foxtail (Setaria faberi). Particulars: Setaria faberi, post-emergence, 312 h; for pest or weed control at 15.625 g/ha: 15.625 g ai/ha, evaluated after 13 days (100=total damage to plant; 0=no damage to plant), read-out: Foxtail, Giant damage rating; for pest or weed control at 62.5 g/ha: 62.5 g ai/ha, read-out: Foxtail, Giant damage rating (100=total damage to plant; 0=no damage to plant); for pest or weed control at 62.5 g/ha / pest or weed control at 250 g/ha: evaluated after 13 days; for pest or weed control at 250 g/ha: 250 g ai/ha, read-out: damage to plant, Foxtail, Giant (100=total damage to plant; 0=no damage to plant). The method, boiled down:
as §1

The subject of assay [3] is ivy-leaved morning glory (Ipomoea hederacea). Conditions: Ipomoea, post-emergence, 312 h; for pest or weed control at 15.625 g/ha: 15.625 g ai/ha, evaluated after 13 days (100=total damage to plant; 0=no damage to plant), read-out: Morningglory, Ivy-leaved damage rating; for pest or weed control at 62.5 g/ha: 62.5 g ai/ha, read-out: Morningglory, Ivy-leaved damage rating (100=total damage to plant; 0=no damage to plant); for pest or weed control at 62.5 g/ha / pest or weed control at 250 g/ha: evaluated after 13 days; for pest or weed control at 250 g/ha: 250 g ai/ha, read-out: damage to plant, Morningglory, Ivy-leaved (100=total damage to plant; 0=no damage to plant). In a few lines:
as §1

The subject of assay [4] is redroot pigweed (Amaranthus retroflexus). Conditions: Amaranthus retroflexus, post-emergence, 312 h; for pest or weed control at 15.625 g/ha: 15.625 g ai/ha, evaluated after 13 days (100=total damage to plant; 0=no damage to plant), read-out: Pigweed, Redroot damage rating; for pest or weed control at 62.5 g/ha: 62.5 g ai/ha, read-out: Pigweed, Redroot damage rating (100=total damage to plant; 0=no damage to plant); for pest or weed control at 62.5 g/ha / pest or weed control at 250 g/ha: evaluated after 13 days; for pest or weed control at 250 g/ha: 250 g ai/ha, read-out: damage to plant, Pigweed, Redroot (100=total damage to plant; 0=no damage to plant). The method, boiled down: as §1

Assay [5] has as its system velvetleaf (Abutilon theophrasti). Conditions: Abutilon theophrasti, post-emergence, 312 h; for pest or weed control at 15.625 g/ha: 15.625 g ai/ha, evaluated after 13 days (100=total damage to plant; 0=no damage to plant), read-out: Velvetleaf damage rating; for pest or weed control at 62.5 g/ha: 62.5 g ai/ha, read-out: Velvetleaf damage rating (100=total damage to plant; 0=no damage to plant); for pest or weed control at 62.5 g/ha / pest or weed control at 250 g/ha: evaluated after 13 days; for pest or weed control at 250 g/ha: 250 g ai/ha, read-out: damage to plant, Velvetleaf (100=total damage to plant; 0=no damage to plant). The method, boiled down: as §1

Consider `CN1C[C@@H](c2ccc(C(F)(F)F)cc2)[C@H](C(=O)Nc2ncc(Br)cn2)C1=O` (racemic) [Compound 1514], for which, in assay [1], the pest or weed control at 15.625 g/ha is 0%, the pest or weed control at 62.5 g/ha was found to be 0% and the pest or weed control at 250 g/ha stood at 0%. Besides, in the assay with corn (Zea mays), the plant injury at 15.625 g/ha was 0%, the plant injury at 62.5 g/ha was found to be 10% and the plant injury at 250 g/ha was found to be 10%. Also, in assay [2], the pest or weed control at 15.625 g/ha worked out at 0%, the pest or weed control at 62.5 g/ha came out at 0% and the pest or weed control at 250 g/ha turned out to be 0%. In assay [3], the pest or weed control at 15.625 g/ha amounted to 0%, the pest or weed control at 62.5 g/ha is 0% and the pest or weed control at 250 g/ha stood at 0%. Besides, in assay [4], the pest or weed control at 15.625 g/ha was 0%, the pest or weed control at 62.5 g/ha was 0% and the pest or weed control at 250 g/ha worked out at 0%. In assay [5], the pest or weed control at 15.625 g/ha was found to be 0%, the pest or weed control at 62.5 g/ha came out at 0% and the pest or weed control at 250 g/ha was found to be 0%.
Turning to `Cc1cscc1NC(=O)[C@@H]1C(=O)N(C)C[C@H]1c1ccc(C(F)(F)F)cc1` (racemic) [Compound 1526], the pest or weed control at 15.625 g/ha in assay [1], in assay [2], in assay [3], in assay [4] and in assay [5] was 0% throughout. The pest or weed control at 62.5 g/ha in assay [1] was 0%; in assay [2], 20%; in assay [3], 10%; in assay [4], 0%; in assay [5], 0%. Moreover, the pest or weed control at 250 g/ha in assay [1] was found to be 60%; in assay [2], 60%; in assay [3], 20%; in assay [4], 0%; in assay [5], 10%. Further, the plant injury at 15.625 g/ha in the assay with corn (Zea mays) was 0%. For the same compound, the plant injury at 62.5 g/ha in the assay with corn (Zea mays) turned out to be 10%. In addition, the plant injury at 250 g/ha in the assay with corn (Zea mays) was 10%.
Turning to `CN1C[C@@H](c2ccc(C(F)(F)F)cc2)[C@H](C(=O)Nc2ncc(C#N)s2)C1=O` (racemic) [Compound 1528], in assay [1], the pest or weed control at 15.625 g/ha amounted to 0%, the pest or weed control at 62.5 g/ha was determined as 0% and the pest or weed control at 250 g/ha is 0%. Moreover, in the assay on corn (Zea mays), the plant injury at 15.625 g/ha stood at 0%, the plant injury at 62.5 g/ha is 0% and the plant injury at 250 g/ha came to 0%. Moreover, in assay [2], the pest or weed control at 15.625 g/ha is 0%, the pest or weed control at 62.5 g/ha was determined as 0% and the pest or weed control at 250 g/ha came to 0%. In assay [3], the pest or weed control at 15.625 g/ha was 0%, the pest or weed control at 62.5 g/ha came out at 0% and the pest or weed control at 250 g/ha amounted to 0%. In assay [4], the pest or weed control at 15.625 g/ha worked out at 0%, the pest or weed control at 62.5 g/ha was 0% and the pest or weed control at 250 g/ha turned out to be 0%. Also, in assay [5], the pest or weed control at 15.625 g/ha was determined as 0%, the pest or weed control at 62.5 g/ha was 0% and the pest or weed control at 250 g/ha was 0%.
Turning to `Cc1cc(NC(=O)[C@@H]2C(=O)N(C)C[C@H]2c2ccc(C(F)(F)F)cc2)n[nH]1` (racemic) [Compound 1532], the pest or weed control at 15.625 g/ha in assay [1], in assay [2], in assay [3], in assay [4] and in assay [5] was 0% in each case. Moreover, the pest or weed control at 62.5 g/ha in assay [1], in assay [2], in assay [3], in assay [4] and in assay [5] was 0% each time. The pest or weed control at 250 g/ha in assay [1], in assay [2], in assay [3], in assay [4] and in assay [5] was 0% each time. Also, the plant injury at 15.625 g/ha in the assay on corn (Zea mays) came out at 0%. Besides, the plant injury at 62.5 g/ha in the assay on corn (Zea mays) came to 0%. For the same compound, the plant injury at 250 g/ha in the assay with corn (Zea mays) came out at 0%.
For `CN1C[C@@H](c2ccc(C(F)(F)F)cc2)[C@H](C(=O)Nc2cc[nH]n2)C1=O` (racemic) [Compound 1533], the pest or weed control at 15.625 g/ha in assay [1], in assay [2], in assay [3], in assay [4] and in assay [5] was 0% throughout. Further, the pest or weed control at 62.5 g/ha in assay [1], in assay [2], in assay [3], in assay [4] and in assay [5] was 0% throughout. For the same compound, the pest or weed control at 250 g/ha in assay [1], in assay [2], in assay [3], in assay [4] and in assay [5] was 0% throughout. Besides, the plant injury at 15.625 g/ha in the assay with corn (Zea mays) amounted to 0%. Moreover, the plant injury at 62.5 g/ha in the assay with corn (Zea mays) worked out at 0%. Also, in the assay on corn (Zea mays), the plant injury at 250 g/ha is 0%.
For the compound `CN1C[C@@H](c2ccc(C(F)(F)F)cc2)[C@H](C(=O)Nc2nc[nH]n2)C1=O` (racemic) [Compound 1534], in assay [1], the pest or weed control at 15.625 g/ha turned out to be 0%, the pest or weed control at 62.5 g/ha is 0% and the pest or weed control at 250 g/ha amounted to 0%. Besides, in the assay on corn (Zea mays), the plant injury at 15.625 g/ha worked out at 0%, the plant injury at 62.5 g/ha is 0% and the plant injury at 250 g/ha amounted to 0%. Besides, in assay [2], the pest or weed control at 15.625 g/ha came out at 0%, the pest or weed control at 62.5 g/ha worked out at 0% and the pest or weed control at 250 g/ha was determined as 0%. For the same compound, in assay [3], the pest or weed control at 15.625 g/ha amounted to 0%, the pest or weed control at 62.5 g/ha amounted to 0% and the pest or weed control at 250 g/ha was found to be 10%. Also, in assay [4], the pest or weed control at 15.625 g/ha amounted to 0%, the pest or weed control at 62.5 g/ha amounted to 0% and the pest or weed control at 250 g/ha was found to be 0%. In assay [5], the pest or weed control at 15.625 g/ha is 0%, the pest or weed control at 62.5 g/ha is 0% and the pest or weed control at 250 g/ha came to 10%.
Consider `CN1C[C@@H](c2ccc(C(F)(F)F)cc2)[C@H](C(=O)Nc2cnccc2Cl)C1=O` (racemic) [Compound 1541], for which the pest or weed control at 15.625 g/ha in assay [1], in assay [2], in assay [3], in assay [4] and in assay [5] was 0% throughout. The pest or weed control at 62.5 g/ha in assay [1], in assay [2], in assay [3], in assay [4] and in assay [5] was 0% throughout. Moreover, the pest or weed control at 250 g/ha in assay [1] stood at 20%; in assay [2], 50%; in assay [3] it was 10%; in assay [4], 20%; in assay [5], 0%. In addition, the plant injury at 15.625 g/ha in the assay with corn (Zea mays) came out at 0%. For the same compound, the plant injury at 62.5 g/ha in the assay with corn (Zea mays) was found to be 0%. Also, the plant injury at 250 g/ha in the assay on corn (Zea mays) is 10%.
